The source of these data is PubChem BioAssay (NCI).

Common to all, as to test: growth of human tumour cells (NCI), 48 h
The subject of assay [1] is MCF7 breast.
Assay [2] relates to SN12C renal.
The test system of assay [3] is M14 melanoma.
In assay [4] the test system is SF-295 CNS.
Assay [5] relates to K-562 leukemia.
Assay [6] deals with NCI-H460 lung.
The subject of assay [7] is LOX IMVI melanoma.
For assay [8], the system named is SF-268 CNS.
Assay [9] has as its system IGROV1 ovarian.
In assay [10] the test system is 786-0 renal.

Each structure is given as a SMILES string. Values joined by “and” are separate entries in the source; they are usually repeats but may differ in a detail not shown here. Equal values may be shown once.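 Briefly, cells in 96-well plates were exposed to five compound concentrations for 48 h, and endpoints were estimated by linear interpolation. At the GI50, growth is halved. TGI denotes the concentration required for complete inhibition of growth.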

On to `CCCCCCCCCCCCCCCCn1cc[n+](C)c1`, for which the GI50 in [1] is 0.367 µM; in assay [2], 0.667 µM; in assay [3], 0.268 µM; in [4] it was 0.318 µM; in assay [5], 0.131 µM; in assay [6], 0.486 µM. In addition, the GI50 is 0.412 µM in assay [7], 0.837 µM in [8], 0.201 µM in [9] and 0.5 µM in assay [10]. Further, the TGI was determined as 1.52 µM in assay [1]; 1.89 µM in assay [2]; 1.3 µM in assay [3]; 1.43 µM in [4]; 1.13 µM in assay [5]; 1.83 µM in assay [6]. The TGI in assay [7] turned out to be 1.64 µM; in assay [8] it was 2.12 µM; in assay [9] it was 0.517 µM; in assay [10], 1.91 µM.

For the compound `CC(C)[C@@]12C[C@@H](OC(=O)C3CO3)[C@@](C)(O1)[C@@H]1CC[C@@H](C)[C@H]1[C@@H]2OC(=O)/C=C/c1ccccc1` (stereo partly drawn), the GI50 is 19.8 µM in assay [1]; 11.9 µM in assay [2]; 24.4 µM in assay [3]; 16.9 µM in assay [4]; 33.2 µM in [5]; 17.2 µM in assay [6]. Also, the GI50 in assay [7] is 17 µM; in [8], 12.1 µM; in assay [9] it was 24.3 µM; in [10] it was 14 µM. Also, the TGI in assay [1] was 83.3 µM; in assay [2] it was 32.5 µM; in assay [3], 88.5 µM; in assay [4], 32.2 µM; in assay [5] it was more than 100 µM; in [6], 34.2 µM. Also, the TGI in [7] stood at 36.7 µM; in assay [8], 40.2 µM; in assay [9] it was 87.2 µM; in assay [10], 29.5 µM.

For the compound `O=C(Nc1ccc(Cl)c(C(F)(F)F)c1)Nc1ccc(-c2cccnc2)cc1N1CCC(CO)CC1`, the GI50 is 2.2 µM in assay [1]; 3.46 µM in assay [2]; 1.93 µM in assay [3]; 2.11 µM in [4]; 3.3 µM in assay [5]; 2.32 µM in assay [6]. Moreover, the GI50 in assay [7] is 1.92 µM; in assay [8], 2.39 µM; in assay [9], 3.48 µM; in assay [10], 1.84 µM. The TGI in [1] is 6.96 µM; in assay [2] it was 19 µM; in [3], 4.85 µM; in assay [4], 5.15 µM; in assay [5] it was more than 100 µM; in assay [6] it was 6.24 µM. Moreover, the TGI in [7] is 3.66 µM; in [8] it was 8.21 µM; in [9], more than 100 µM; in assay [10], 4.52 µM.

`COc1cc2c(/C=C3\C(=O)N(C)c4ccccc43)c[nH]c2cc1C`: the GI50 in [1] was 0.12 µM; in assay [2], 2 µM; in [3] it was 0.541 µM; in [4], 0.374 µM; in assay [5], 1.68 µM; in assay [7] it was 0.869 µM. Besides, the GI50 in assay [8] was 0.103 µM; in assay [9], 7.87 µM; in assay [10], 4.43 µM. Besides, the TGI in assay [1] is more than 100 µM; in assay [2], more than 73.5 µM; in [3] it was more than 100 µM; in assay [4], 15.6 µM; in assay [5], more than 100 µM; in assay [6] it was more than 37.1 µM. Further, the TGI in [7] was more than 47.9 µM; in assay [8] it was more than 43.9 µM; in [9] it was more than 69.6 µM; in [10], more than 59.6 µM.

`CN1CCN(C)C1c1ccc(C2N(C)CCN2C)cc1`: the GI50 in assay [1] was 20.1 µM; in assay [2] it was 31.4 µM; in assay [3], 18.6 µM; in assay [4], more than 100 µM; in assay [5], 38.5 µM; in assay [6], more than 100 µM. The GI50 in assay [7] was 31.3 µM; in [8] it was 39.8 µM; in assay [9], more than 100 µM; in assay [10] it was more than 100 µM. Also, the TGI in assay [1] was more than 100 µM; in assay [2], more than 100 µM; in assay [3] it was 58.2 µM; in assay [4], more than 100 µM; in assay [5] it was more than 100 µM; in [6] it was more than 100 µM. In addition, the TGI in [7], in assay [8], in assay [9] and in [10] was more than 100 µM in each case.

As for `OCc1ccc(-c2nc(-c3ccc4c(c3)OCO4)c(-c3ccccn3)[nH]2)cc1`, the GI50 in [1] is more than 25 µM; in assay [2], more than 25 µM; in assay [3], more than 25 µM; in assay [4], more than 25 µM; in [5], more than 25 µM; in assay [6], more than 20.9 µM. Besides, the GI50 was 19 µM in [7], more than 25 µM in assay [8], more than 25 µM in assay [9] and more than 25 µM in assay [10]. The TGI in assay [1], in assay [2], in assay [3], in [4], in assay [5] and in [6] was more than 25 µM in each case. In addition, the TGI in assay [7], in assay [8], in assay [9] and in assay [10] was more than 25 µM throughout.

In the case of `CC[C@]12CN3CCc4c([nH]c5ccccc45)[C@@](C(=O)OC)(c4cc5c(cc4OC)N(C)[C@H]4[C@@](O)(C(=O)OC)[C@H](OC(C)=O)[C@]6(CC)C=CCN7CC[C@]54[C@@H]76)CC(C3)[C@H]1O2` (stereo partly drawn), the GI50 in [1] was 0.0181 µM; in [2] it was 0.408 µM; in assay [3] it was 0.239 µM; in [5], 0.0499 µM; in assay [6], 0.167 µM; in assay [7] it was 0.145 µM. For the same compound, the GI50 is 0.226 µM in assay [8], 0.154 µM in [9] and 1.3 µM in assay [10]. In addition, the TGI was more than 33.9 µM in assay [1]; 15.4 µM and > 50 µM in assay [2]; 25.1 µM in [3]; more than 12.3 µM in assay [4]; more than 50 µM in [5]; 10.9 µM and > 27.4 µM in assay [6]. The TGI in assay [7] is more than 100 µM; in assay [8], more than 68.1 µM; in assay [9], more than 100 µM; in [10], more than 100 µM.
